In publication PMC4648443, “Protein evolution analysis of S-hydroxynitrile lyase by complete sequence design utilizing the INTMSAlign software” (Scientific Reports, 2015):
Like-named read-outs stand apart in the source and are kept apart here.

Tests used:
HNL54 = system: T1, HNL54; assay: benzaldehyde formation at […] nm; assay type: biochemical, synthetic construct; details: 100 mM citrate pH 5.5, 30 °C
T1 construct: synthetic gene in pET28b (NdeI/XhoI), E. coli BL21(DE3), Ni-Sepharose and gel filtration

HNL30 = system: T2, HNL30; assay: benzaldehyde formation at […] nm; assay type: biochemical, synthetic construct; details: 100 mM citrate pH 5.5, 30 °C
T2 construct: pET28b (NdeI/XhoI), E. coli BL21(DE3), Ni-Sepharose and gel filtration

SMILES	Km (HNL54; read-out: Km /) [µM]	Km (HNL30; read-out: Km /) [µM]	Km (HNL54; read-out: HNL54 / Km) [µM]	Km (HNL30; read-out: HNL30 / Km) [µM]
N#CC(O)c1ccccc1 (racemic) [rac-Man]	3200 ± 300	800 ± 100	–	–
N#C[C@H](O)c1ccccc1 [(R)-Man]	–	–	370	5000
N#C[C@@H](O)c1ccccc1 [(S)-Man]	–	–	610	400
